US11220534B2, “Treatment of neurological diseases” (Lancaster University Business Enterprises Limited, priority 2016, dated 2022)
Where no end group is shown, it is not given here. [ ]: non-standard residue; d: D form. Aib = CC(C)(N)C(=O)O

Experiments:
APP/PS1 mice [1] = assay: Immunostaining for phosphorylated tau protein in the hippocampus; format: in vivo; settings: APP/PS1 mice vs APP/PS1-saline; FIG. 10; N=4 per group
Text: Materials and methods in Example 2 are the same as Example 1 except when stated. Reagents used in Example 2 only include antibodies to p-PI3Kp85, PI3Kp85, p-Akt (ser473), Akt, p-GSK3β ([…]), and GSK3β from Abcam, Inc. Cambridge, UK. The antibody to p-tau (AT8) from Thermo Scientific USA. Mouse Anti-β-actin, Anti-Rabbit IgG, Anti-mouse IgG, CY3-Anti-mouse IgG, RIPA Lysate, BCA Protein Assay Kit, DAPI staining solution and Anti-fluorescence decay agent from Boster (Wuhan, China). After in vivo hippocampal L-LTP recording, the mice were anesthetized with chloral hydrate (0.007 ml/g) by intraperitoneal injection and then the brain tissue was fixed with paraformaldehyde for 24 hours, after that the tissue was transferred to 30% sucrose solution for dehydration. The brain tissue was harvested, frozen in -80° C., and then sliced at a thickness of 30 μm, put the frozen section in PBS, blocked with normal goat serum (Solarbio, Beijing, China), followed by adding the primary antibody, second antibody and DAPI. Phosphorylated tau protein was observed by confocal laser scanning microscopy.

APP/PS1 mice [2] = assay: In vivo hippocampal measurements of L-LTP in AD mice; settings: N=6 per group
Text: Materials and methods in Example 2 are the same as Example 1 except when stated. Reagents used in Example 2 only include antibodies to p-PI3Kp85, PI3Kp85, p-Akt (ser473), Akt, p-GSK3β ([…]), and GSK3β from Abcam, Inc. Cambridge, UK. The antibody to p-tau (AT8) from Thermo Scientific USA. Mouse Anti-β-actin, Anti-Rabbit IgG, Anti-mouse IgG, CY3-Anti-mouse IgG, RIPA Lysate, BCA Protein Assay Kit, DAPI staining solution and Anti-fluorescence decay agent from Boster (Wuhan, China). Mice were anesthetized with urethane (Sigma, UK, 1.5 g/kg, i.p.) and placed in a stereotaxic apparatus (RWD Life Science, China) for L-LTP recording. Cut off the scalp and expose the skull, small holes were drilled on one side of the skull (2.0 mm posterior to bregma and 1.5 mm lateral to the midline). […] Baseline fEPSPs were elicited by test stimuli at an interval of 30 seconds and 30 minutes fEPSPs were recorded to observe whether the underlying synaptic transmission is affected. […] The change in PPF ratio, calculated by dividing the slope of the second fEPSP by the slope of the first fEPSP, is viewed to be related with the changes in neurotransmitter release from presynaptic terminals. […] The fEPSPs were recorded for 180 minutes after HFS. All events were recorded by a biological signal processing system (Chengdu Instruments Ltd, China). […]

APP/PS1 mice [3] = assay: Y-maze test for working memory in AD mice; format: in vivo; settings: FIG. 6, N=8-14 per group
Text: Materials and methods in Example 2 are the same as Example 1 except when stated. Reagents used in Example 2 only include antibodies to p-PI3Kp85, PI3Kp85, p-Akt (ser473), Akt, p-GSK3β ([…]), and GSK3β from Abcam, Inc. Cambridge, UK. The antibody to p-tau (AT8) from Thermo Scientific USA. Mouse Anti-β-actin, Anti-Rabbit IgG, Anti-mouse IgG, CY3-Anti-mouse IgG, RIPA Lysate, BCA Protein Assay Kit, DAPI staining solution and Anti-fluorescence decay agent from Boster (Wuhan, China). Spatial working memory was assessed by recording spontaneous alternation behaviour in a Y-maze. The maze was made of three 30 cm long, 7 cm high, 15 cm wide arms and the arms converged in an equilateral triangular central area. Each mouse was placed at the central triangular area and allowed to move freely through the maze during an 8-min session. The total arm entries and arm order was recorded by Smart 3.0 software system. Alternation was defined as successive entries into the three arms, on overlapping triplet sets. The percent alternation was calculated as the ratio of actual to possible alternations (defined as the total number of arm entries minus 2) multiplied by 100.

[4] = system: PI3K/AKT/GSK3β signalling pathway; assay: Western blotting for hippocampal levels of PI3K/AKT/GSK3β; format: in vivo; settings: APP/PS1 mice; FIG. 11; N=6 per group
Text: Materials and methods in Example 2 are the same as Example 1 except when stated. Reagents used in Example 2 only include antibodies to p-PI3Kp85, PI3Kp85, p-Akt (ser473), Akt, p-GSK3β ([…]), and GSK3β from Abcam, Inc. Cambridge, UK. The antibody to p-tau (AT8) from Thermo Scientific USA. Mouse Anti-β-actin, Anti-Rabbit IgG, Anti-mouse IgG, CY3-Anti-mouse IgG, RIPA Lysate, BCA Protein Assay Kit, DAPI staining solution and Anti-fluorescence decay agent from Boster (Wuhan, China). The hippocampi of mouse were dissected and homogenized in tissue protein extraction reagent, and protein concentration was measured using BCA Protein Assay Kit. A total of 50 μg of protein was used from each sample. Sample proteins were separated on 12% SDS-polyacrylamide gels. After that, the proteins were transferred onto PVDF membranes and nonspecific binding was blocked with 5% BSA. A primary antibody was used to incubate the membranes overnight at 4° C., followed by a secondary antibody for 2 h. The optical density of the target strip (p-PI3K, t-PI3K, p-AKT, t-AKT, p-GSK3β and t-GSK3β) was analyzed by using a gel image processing system. Data were analysed using a one-way ANOVA with post-hoc Bonferroni tests. The results are illustrated in FIGS. 5 to 11.

Substance: YXEGTFTSDYSIYLDKQAAXEFVNWLLAGGPSSGAPPPSKRRQRRKKRGY-NH2 (Y[Aib]EGTFTSDYSIYLDKQAA[Aib]EFVNWLLAGGPSSGAPPPSKRRQRRKKRGY-NH2) [DA5, No. 12; X=aminoisobutyric acid]
- neurofibrillary tangles (immunofluorescence staining of p-tau protein) (APP/PS1 mice [1]): reduces neurofibrillary tangles
- levels of L-LTP post neuronal stimuli (APP/PS1 mice [2]; APP/PS1 mice, FIG. 9b): maintained high levels of L-LTP post neuronal stimuli
- depression of L-LTP in the hippocampus (APP/PS1 mice [2]; APP/PS1 transgenic mice, pre-treatment, FIG. 9a): able to reverse the depression of L-LTP
- spatial working memory (percent alternation, Y-maze) (APP/PS1 mice [3]): improved spatial working memory
- activation of GSK3β / PI3K/AKT signalling (western blot, hippocampus) [4]: prevents excessive activation of GSKβ by upregulating P13/AKT signalling
